Data: PMC8175851, “Effects of Genetic Polymorphism in CYP2D6, CYP2C19, and the Organic Cation Transporter OCT1 on Amitriptyline Pharmacokinetics in Healthy Volunteers and Depressive Disorder Patients” (Frontiers in Pharmacology, 2021)
Where two headings read alike, the source gives them in different places.

Target: T1, OCT1 (Homo sapiens, UniProt O15245)
T1 construct: expressed in transfected cells
T1 sequence (O15245 1-554): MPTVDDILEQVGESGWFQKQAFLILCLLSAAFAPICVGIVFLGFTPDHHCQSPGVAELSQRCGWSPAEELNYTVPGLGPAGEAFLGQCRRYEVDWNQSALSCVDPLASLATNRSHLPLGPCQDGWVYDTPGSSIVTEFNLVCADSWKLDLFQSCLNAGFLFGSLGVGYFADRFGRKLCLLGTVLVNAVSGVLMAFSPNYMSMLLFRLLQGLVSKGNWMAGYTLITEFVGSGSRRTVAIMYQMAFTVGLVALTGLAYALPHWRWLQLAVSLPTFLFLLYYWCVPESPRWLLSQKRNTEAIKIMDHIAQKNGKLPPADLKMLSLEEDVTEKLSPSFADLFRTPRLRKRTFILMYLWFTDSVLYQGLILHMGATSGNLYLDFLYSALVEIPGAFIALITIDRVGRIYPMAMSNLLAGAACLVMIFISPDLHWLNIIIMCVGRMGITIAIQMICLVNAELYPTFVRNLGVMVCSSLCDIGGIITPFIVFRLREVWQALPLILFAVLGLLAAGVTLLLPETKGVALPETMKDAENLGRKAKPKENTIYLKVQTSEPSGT
Experiment: in vitro
Experimental: The inhibition of OCT1 by different psychotropic drugs was studied in transport experiments using HEK293 cells stably transfected with wild-type OCT1. The cells were generated by targeted chromosomal integration using the Flp-In system (Thermo Fisher Scientific, Darmstadt, Germany), as has been described in detail before ([Saadatmand et al., 2012]). The cells were cultured in Dulbecco’s Modified Eagle’s Medium supplemented with 10% foetal bovine serum, 100 U/ml penicillin, and 100 μg/ml streptomycin at 37°C, 5% CO2, and 95% relative humidity. Cells were kept in culture for no more than 30 passages. All buffers and reagents were purchased from Thermo Fisher Scientific (Darmstadt, Germany).
Approximately 48 h before the transport experiments, recombinant OCT1-expressing cells and empty vector-transfected control cells were seeded at a density of 4 × 10^5 cells/well in 12-well plates coated with poly-D-lysine and incubated as described above. On the day of the experiment, the cells were washed twice with prewarmed (37°C) Hank’s Balanced Salt Solution (HBSS). They were subsequently incubated for 3 min at 37°C with 1 µM of the fluorescent OCT1 substrate ASP^+ (4-(4-(dimethylamino)styryl)-N-methylpyridinium iodide) and increasing concentrations of the antidepressants in 500 µl HBSS. The reaction was stopped by adding 2 ml ice-cold HBSS. This was subsequently removed and the cells were lyzed in 500 µl radioimmunoprecipitation assay (RIPA) buffer for 10 min under shaking. The cell uptake of ASP^+ was quantified using a Tecan Ultra microplate reader (Tecan Group AG, Männedorf, Switzerland) at excitation wavelength 485 nm and emission wavelength 612 nm. The intracellular ASP^+ concentrations were normalised to the total amount of protein in the sample that was determined using the bicinchoninic acid assay ([Smith et al., 1985]). IC50 values were calculated using SigmaPlot 11 (Systat Software GmbH, Erkrath, Germany) and Prism 5 (GraphPad Software, San Diego, CA, United States).

| SMILES | inhibition at 3 min, 2.69 µM (human, HEK293 cells stably transfected with wild-type OCT1) | IC50 (read-out: IC50 (OCT1 inhibition)) | IC50 (inhibition of uptake of 1 µM ASP+, 3 min, HEK293 cells with wild-type OCT1, mean) |
| --- | --- | --- | --- |
| CN(C)CCC=C1c2ccccc2CCc2ccccc21 [Amitriptyline, amitriptyline] | 23% | 28.6 ± 18.9 µM | – |
| CNCCC=C1c2ccccc2CCc2ccccc21 [Nortriptyline, nortriptyline] | – | – | 40.4 ± 16.2 µM |
